Patent US9232796B2, “Herbicidal compositions comprising 4-amino-3-chloro-5-fluoro-6-(4-chloro-2-fluoro-3-methoxyphenyl) pyridine-2-carboxylic acid or a derivative thereof and acetyl-CoA carboxylase (ACCase) inhibitors” (DOW AGROSCIENCES LLC, priority 2012, dated 2016)

Experiments:
[1] = test system: SCPJU; test: Example VI in-water applied ternary mixtures, greenhouse, transplanted paddy rice weeds; assay type: in vivo, Schoenoplectus juncoides (Roxb.) Palla; conditions: 17.5 gai/ha
Description: (§1) Weed seeds or nutlets of the desired test plant species were planted in puddled soil (mud) prepared by mixing a shredded, non-sterilized mineral soil (50.5 percent silt, 25.5 percent clay, and 24 percent sand, with a pH of about 7.6 and an organic matter content of about 2.9 percent) and water at a 1:1 volumetric ratio. The prepared mud was dispensed in 365 mL aliquots into 16-ounce (oz.) non-perforated plastic pots with a surface area of 86.59 square centimeters (cm^2) leaving a headspace of 3 centimeters (cm) in each pot. Mud was allowed to dry overnight prior to planting or transplanting. Rice seeds were planted in Sun Gro MetroMix® 306 planting mixture, which typically has a pH of 6.0 to 6.8 and an organic matter content of about 30 percent, in plastic plug trays. Seedlings at the second or third leaf stage of growth were transplanted into 860 mL of mud contained in 32-oz. non-perforated plastic pots with a surface area of 86.59 cm^2 4 days prior to herbicide application. The paddy was created by filling the headspace of the pots with 2.5 to 3 cm of water. When required to ensure good germination and healthy plants, a fungicide treatment and/or other chemical or physical treatment was applied. The plants were grown for 4-22 days in a greenhouse with an approximate 14 hr. photoperiod which was maintained at about 29° C. during the day and 26° C. during the night. Nutrients were added as Osmocote® (19:6:12, N:P:K+minor nutrients) at 2 g per 16-oz. pot and 4 g per 32-oz. pot. Water was added on a regular basis to maintain the paddy flood, and supplemental lighting was provided with overhead metal halide 1000-Watt lamps as necessary. The plants were employed for testing when they reached the first through fourth true leaf stage.
(§2) Treatments consisted of the benzyl ester of 4-amino-3-chloro-5-fluoro-6-(4-chloro-2-fluoro-3-methoxy-phenyl)pyridine-2-carboxylic acid (Compound A), formulated as an SC (suspension concentrate), an ACCase inhibitor herbicide, and a third herbicidal component, each applied alone and in ternary combination. Forms of compound A were applied on an acid equivalent basis.
The ACCase inhibitor component was applied on an active ingredient basis and included cyhalofop-R-butyl formulated as Clincher® G and metamifop formulated as Metamifop EC. […]
(§3) Treatment requirements for each compound or herbicidal component were calculated based upon the rates being tested, the concentration of active ingredient or acid equivalent in the formulation, an application volume of 1 mL per component per pot, and an application area of 86.59 cm^2 per pot.
For formulated compounds, a measured amount was placed in an individual 100 or 200 mL glass vial and was dissolved in a volume of 1.25% (v/v) Agri-Dex® crop oil concentrate to obtain application solutions. […]

[2] = test system: ECHCG; test: as above; assay type: in vivo, Echinochloa crus-galli (L.) Beauv.
How it was run: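 Compound A (SC, acid-equivalent basis) alone or with cyhalofop-R-butyl or metamifop plus a third herbicide, injected into paddy water of greenhouse-grown transplanted rice and weeds at 1st–4th leaf stage (~29/26 °C). Visual injury scored 0–100% after ~3 weeks vs untreated; expected mixture effects by Colby's equation.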

[3] = test system: SCPJU; test: Example V (second) postemergence foliar-applied ternary mixtures, greenhouse, direct seeded rice weeds; assay type: in vivo, Schoenoplectus juncoides (Roxb.) Palla; conditions: 17.5 gae/ha
Description: (§4) Seeds or nutlets of the desired test plant species were planted in a soil matrix prepared by mixing a sandy loam or loam soil (e.g., 32 percent silt, 23 percent clay, and 45 percent sand, with a pH of about 6.5 and an organic matter content of about 1.9 percent) and calcareous grit in an 80 to 20 ratio. The soil matrix was contained in plastic pots with a volume of 1 quart and a surface area of 83.6 square centimeters (cm^2). When required to ensure good germination and healthy plants, a fungicide treatment and/or other chemical or physical treatment was applied. The plants were grown for 8-22 days in a greenhouse with an approximate 14 hr. photoperiod which was maintained at about 29° C. during the day and 26° C. during the night. Nutrients (Peters Excel® 15-5-15 5-Ca 2-Mg and iron chelate) were applied in the irrigation solution as needed and water was added on a regular basis. Supplemental lighting was provided with overhead metal halide 1000-Watt lamps as necessary. The plants were employed for testing when they reached the first through fourth true leaf stage.
as §2, with “inhibitor,” for “inhibitor herbicide,”
The ACCase inhibitor component was applied on an active ingredient basis and included cyhalofop-R-butyl formulated as Clincher® SF, fenoxaprop-p-ethyl formulated as RiceStar® HT, and profoxydim formulated as Aura® 20EC. Other herbicidal components were applied on an active ingredient or acid equivalent basis depending on the compound and included penoxsulam formulated as Grasp® SC, bentazon sodium formulated as Basagran®, triclopyr […] (TEA) salt formulated as Grandstand® R, bispyribac sodium formulated as Regiment® 80WP, imazamox ammonium formulated as Beyond®, benzobicyclon, quinclorac formulated as Facet® 75DF, glyphosate dimethylammonium (DMA) salt formulated as Durango® DMA, glufosinate ammonium formulated as Ignite® 280, fentrazamide formulated as an emulsifiable concentrate (EC), propyrisulfuron formulated as Zeta One®, and indanofan (technical grade material).
Treatment requirements were calculated based upon the rates being tested, the concentration of active ingredient or acid equivalent in the formulation, and a 12 mL application volume at a rate of 187 L/ha.
For treatments comprised of formulated compounds, measured amounts of compounds were placed individually in 25 mL glass vials and diluted in a volume of 1.25% (v/v) Agri-Dex® crop oil concentrate to obtain 12× stock solutions. […]

[4] = test system: CYPIR; test: as above; assay type: in vivo, Cyperus iria L.
Description: (§5) The treated plants and control plants were placed in a greenhouse as described above and watered by sub-irrigation to prevent wash-off of the test compounds. After approximately 3 weeks, the condition of the test plants as compared with that of the untreated plants was determined visually and scored on a scale of 0 to 100 percent where 0 corresponds to no injury or growth inhibition and 100 corresponds to complete kill.
(§6) Colby's equation was used to determine the herbicidal effects expected from the mixtures (Colby, S. R. 1967. Calculation of the synergistic and antagonistic response of herbicide combinations. Weeds 15:20-22.).
(§7) The following equation was used to calculate the expected activity of mixtures containing three active ingredients, A, B, and C: Expected=A+B+C−((A×B+A×C+B×C)/100)+(A×B×C/10000)

[5] = test system: ECHCO; test: as above; assay type: in vivo, Echinochloa colona (L.) Link; conditions: 17.5 gae/ha
Description: as §5, §6, §7

[6] = test system: ECHCG; test: as above; assay type: in vivo, Echinochloa crus-galli (L.) Beauv.; conditions: 17.5 gae/ha
How it was run: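 Compound A (SC, acid equivalent), an ACCase inhibitor and a third herbicide were sprayed alone and as ternary mixtures postemergence at 187 L/ha with 1.25% v/v crop oil concentrate on greenhouse plants at the 1st–4th true leaf stage (29/26 °C day/night, ~14 h photoperiod). Injury was scored visually at ~3 weeks (0–100%) against untreated plants, and Colby's equation gave the expected mixture effects.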

[7] = test system: IPOHE; test: as above; assay type: in vivo, Ipomoea hederacea Jacq.; conditions: Penoxsulam 8.75 gai/ha
Description: (§8) All stock solutions and applications solutions were visually inspected for compound compatibility prior to application. Spray solutions were applied to the plant material with an overhead Mandel track sprayer equipped with a 8002E nozzles calibrated to deliver 187 L/ha over an application area of 0.503 m^2 at a spray height of 18 inches (46 cm) above average plant canopy height. Control plants were sprayed in the same manner with the solvent blank.
as §5, §6, §7

[8] = test system: ECHOR; test: as above; assay type: in vivo, Echinochloa oryzoides (Ard.) Fritsch
Description: as §4, with “When required to ensure good germination and healthy plants, a fungicide treatment and/or other chemical or physical treatment was applied.” left out
as §2, with “inhibitor,” for “inhibitor herbicide,”
For treatments comprised of formulated compounds, measured amounts of compounds were placed individually in 25 mL glass vials and diluted in a volume of 1.25% (v/v) Agri-Dex® crop oil concentrate to obtain 12× stock solutions. […] Application solutions were prepared by adding an appropriate amount of each stock solution (e.g., 1 mL) and diluted to the appropriate final concentrations with the addition of 9 mL of an aqueous mixture of 1.25% (v/v) crop oil concentrate so that the final spray solutions contained 1.25% (v/v) crop oil concentrate.
As required, additional water and/or 97:3 v/v acetone/DMSO was added to individual application solutions so that the final acetone and DMSO concentrations of the application solutions being compared were 8.1% and 0.25%, respectively.
as §8, §5, §6, §7

[9] = test system: FIMMI; test: Example VI in-water applied ternary mixtures, greenhouse, transplanted paddy rice weeds; assay type: in vivo, Fimbristylis miliacea (L.) Vahl
Description: as §1, §2
(§9) The ACCase inhibitor component was applied on an active ingredient basis and included cyhalofop-R-butyl formulated as Clincher® G and metamifop formulated as Metamifop EC. Other herbicidal components were applied on an active ingredient or acid equivalent basis depending on the compound and included penoxsulam formulated as Grasp® SC, bentazon sodium formulated as Basagran®, triclopyr […] (TEA) salt formulated as Grandstand® R, benzobicyclon formulated as Benzobicyclon, benfuresate formulated as Full Slot® WG, pyraclonil formulated as Pyraclon® Flowable, mefenacet (technical grade material), and pretilachlor (technical grade material).
as §3
(§10) For formulated compounds, a measured amount was placed in an individual 100 or 200 mL glass vial and was dissolved in a volume of 1.25% (v/v) Agri-Dex® crop oil concentrate to obtain application solutions.
(§11) For technical grade compounds, a weighed amount was placed in an individual 100 to 200 mL glass vial and was dissolved in a volume of acetone to obtain concentrated stock solutions.
(§12) Applications were made by injecting with a pipetter appropriate amounts of the application solutions, into the aqueous layer of the paddy. Control plants were treated in the same manner with the solvent blank. Applications were made so that all treated plant material received the same concentrations of acetone and crop oil concentrate.
(§13) The treated plants and control plants were placed in a greenhouse as described above and water was added as needed to maintain a paddy flood. […]

[10] = test system: ECHOR; test: as above; assay type: in vivo, Echinochloa oryzoides (Ard.) Fritsch
Description: as §1, §2, §9, §3, §10, §11, §12, §13

[11] = test system: CYPRO; test: as above; assay type: in vivo, Cyperus rotundus L.
Description: as §1, §2, §9, §3, §10, §11, §12, §13

[12] = test system: SCPMA; test: as above; assay type: in vivo, Schoenoplectus maritimus (L.) Lye; conditions: 5 gai/ha
Description: as §12
as §5, with “water was added as needed” for “watered by sub-irrigation”, “maintain a paddy flood.” for “prevent wash-off of the test compounds.”, “weeks” for “weeks,”
as §6
The following equation was used to calculate the expected activity of mixtures containing three active ingredients, A. B, and C: Expected=A+B+C−((A×B+A×C+B×C)/100)+(A×B×C/10000)

## CCN(CC)CC.O=C(O)COc1nc(Cl)c(Cl)cc1Cl [Triclopyr TEA]
[1]
  Visual Weed Control (%) - 21 DAA SCPJU Obs: 8%
[2]; 17.5 gai/ha, first set
  Visual Weed Control (%) - 21 DAA ECHCG Obs: 0%
[2]; 35 gai/ha, second set
  Visual Weed Control (%) - 21 DAA ECHCG Obs: 0%

## CCN(CC)CC.O=C(O)COc1nc(Cl)c(Cl)cc1Cl [Triclopyr TEA Salt]
[3]
  Visual Weed Control (%) - 21 DAA SCPJU Obs: 43%
[4]; 17.5 gae/ha
  Visual Weed Control (%) - 21 DAA CYPIR Obs: 0%
[5]
  Visual Weed Control (%) - 21 DAA ECHCO Obs: 3%
[6]
  Visual Weed Control (%) - 21 DAA ECHCG Obs: 0%

## COc1cnc(OC)n2nc(NS(=O)(=O)c3c(OCC(F)F)cccc3C(F)(F)F)nc12 [Penoxsulam]
[7]
  Visual Weed Control (%) - 21 DAA IPOHE Obs: 48%
[8]; 4.38 gai/ha
  Visual Weed Control (%) - 22 DAA ECHOR Obs: 45%
[8]; 8.75 gai/ha
  Visual Weed Control (%) - 22 DAA ECHOR Obs: 53%
[4]; 4.38 gai/ha
  Visual Weed Control (%) - 22 DAA CYPIR Obs: 50%
[9]; 1.25 gai/ha
  Visual Weed Control (%) - 21 DAA FIMMI Obs: 33%
[9]; 2.5 gai/ha
  Visual Weed Control (%) - 24 DAA FIMMI Obs: 60%
[2]; 1.25 gai/ha, first sub-table
  Visual Weed Control (%) - 21 DAA ECHCG Obs: 17%
[2]; 2.5 gai/ha, second sub-table
  Visual Weed Control (%) - 21 DAA ECHCG Obs: 55%
[10]; Table 71, 5 gai/ha
  Visual Weed Control (%) - 24 DAA ECHOR Obs: 65%
[10]; Table 71, 10 gai/ha
  Visual Weed Control (%) - 24 DAA ECHOR Obs: 93%
[11]; 1.25 gai/ha
  Visual Weed Control (%) - 21 DAA CYPRO Obs: 0%
[11]; 2.5 gai/ha
  Visual Weed Control (%) - 24 DAA CYPRO Obs: 0%
[11]; 5 gai/ha
  Visual Weed Control (%) - 24 DAA CYPRO Obs: 0%
[12]
  Visual Weed Control (%) - 24 DAA SCPMA Obs: 30%
